The values that follow are results of earlier work, collected in patent US20090275622A1, “NIZATIDINE FORMULATIONS” (priority 2008, published 2009).

The conditions of the data set: crystalline solid.

Take `CN/C(=C\[N+](=O)[O-])NCCSCc1csc(CN(C)C)n1` [Nizatidine, N-[2-[[[2-[(dimethylamino)methyl]-4-thiazolyl]methyl]thio]ethyl]-N′-methyl-2-nitro-1,1-ethenediamine]: the Solubility in water entry is “soluble in water”.
